According to EP0146258A2, “Glycerol derivatives” (ONO PHARMACEUTICAL CO., LTD., priority 1983, dated 1985):

Test system: mice
Test: Acute toxicity by intravenous administration
Format: in vivo
Conditions: intravenously administered to tail vein in five mice at the dose of 50 mg/kg
Procedure: On the other hand, it was confirmed that the acute toxicity of all extent of the compounds of the present invention was more than 50 mg/kg by intravenous administration. Therefore, glycerol derivatives of the present invention may be considered to be sufficiently safe and suitable for medical use. For example, the mortality (dead/used) in glycerol derivatives of the present invention, i.e. compounds prepared in Example 1(h) and 11(a) was 0/5 and 0/5, respectively, when each glycerol compound was intravenously administered to tail vein in five mice at the dose of 50 mg/kg.

Row | SMILES | mortality (dead/used)
1 | CCCCCCCCCCCCCCCCOCC(COCCCCCCC[N+]1(C)CCCC1)NC(C)=O (centres unmarked) [11(a)] | 0/5
2 | CCCCCCCCCCCCCCCCOCC(COCCCCCCC[n+]1ccsc1)OCC (centres unmarked) [Example 1(h)] | 0/5
